In patent US10471076B2, “Compositions and methods to treat vision disorders” (YouHealth Biotech, Limited, priority 2014, dated 2019):
Entries after “also recorded” stand apart in the source; their conditions may differ.

What was measured:
[1] = tested on: cataract-causing mutant crystallin proteins; experiment: Intracellular aggregation of mutant crystallins in transfected human lens progenitor cells; format: cell-based
Protocol: To assess the effect of lanosterol on crystallin aggregation, human lens progenitor cells were co-transfected with LSS and various crystallin constructs for 4 h. Cells co-transfected with crystallin mutants and pcDNA3.1-N-Flag were used as a control. Human lens progenitor cells co-transfected with LSS and crystallin mutant constructs were cultured for 12 h before assaying for aggregates. The rescue experiments were performed after 16 h by addition of 40 mM sterols (lanosterol or cholesterol, Sigma-Aldrich) to the cell culture medium for 2 h, which was then replaced with fresh culture medium and cells cultured for 24 h. The percentage of cells with crystallin aggregates was calculated from ten randomly selected viewing fields. The values of the wild-type LSS group, mutant group, and mutant plus lanosterol group were calculated. Cells treated with 1% DMSO were used as the controls.
The impact of LSS and lanosterol on intracellular crystallin aggregation were evaluated in single-blinded observer studies. Experiments have been repeated at least three times. P values were calculated using Student's t-tests. Fluorescence microscopy. Equal amounts of the human lens progenitor cells, HLEB-3 cells or HeLa cells were seeded on glass coverslips pretreated with TC (Solarbio). After culturing for 24 h to reach 90% confluency, the cells were transfected with plasmids containing various LSS or crystallin genes or co-transfected with plasmids containing a certain crystallin gene and those containing the wild-type or mutated LSS gene. The controls were cells transfected with the plasmids containing peGFP-N1 and/or peDNA3.1-N-Flag. Both transfection and co-transfection were performed using Lipofectamine 3000 (Invitrogen) according to the instructions from the manufacturer.
The effect of lanosterol or cholesterol on the aggresome formation of various crystallins was studied by transfecting the cells with plasmids containing various crystallin genes. The cells were incubated for 24 h to enable efficient protein expression and aggresome formation. The cells were then treated with 0-40 mM sterols in 1% (for human lens progenitor cells) or 2% DMSO (for HeLa cells). Cells treated with 1% or 2% DMSO were used as the control. After treatment for 2 h, the media was replaced with fresh media. After 12 h, the cells were used for microscopy analysis.
The microscopy samples were prepared by washing the slips with phosphate buffered saline (PBS) three times. The cells were fixed with 4% paraformaldehyde for 40 min followed by another three washes with PBS. The cells were permeabilized with 0.1% Triton X-100 (Sigma) in PBS for 10 min and blocked with 5% normal goat serum in PBS for 1 h at 37° C. […] The mounted cells were analysed using a Carl Zeiss LSM 710 confocal microscope.

[2] = target: T1, αA-crystallin (Y118D) aggregates (Homo sapiens, UniProt P02489, Y118D); experiment: Serial live-cell imaging, single-particle tracking of aggregates; format: cell-based; conditions: human lens progenitor cells; 40 mM sterol in 1% DMSO for 4 h
T1 construct: expressed in transfected cells; host or cells: human lens progenitor cells, G418-selected
T1 sequence (P02489 1-173 Y118D): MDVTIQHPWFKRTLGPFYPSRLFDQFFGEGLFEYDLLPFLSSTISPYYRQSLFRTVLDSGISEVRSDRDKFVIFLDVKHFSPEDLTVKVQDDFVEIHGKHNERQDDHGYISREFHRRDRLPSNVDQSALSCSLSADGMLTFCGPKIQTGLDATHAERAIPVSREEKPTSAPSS
Protocol: Live-cell imaging. Human lens progenitor cells were transfected with plasmids containing αA-crystallin (Y118D) mutant. After a 24 h transfection period, the cells with stable expression of αA-crystallin (Y118D) mutant were screen by incubation in culture medium containing 0.8 mg ml^−1 G418 for 7 days. Then the obtained cells were seeded onto glass bottom cell culture dishes (In Vitro Scientific) and treated with 1% DMSO, 40 mM cholesterol in 1% DMSO or 40 mM lanosterol in 1% DMSO for 4 h. Fresh culture medium was added, and the cells were analysed by serial live-cell imaging. Live-cell images were viewed with an Olympus IX81 microscope and captured with CellSens Dimension soft-ware (Olympus). Quantitative analysis of the size of aggregates was performed by measuring the fluorescence intensity of p62-positive aggregates using single-par-tide tracking in live-cell imaging. The live-cell imaging was conducted using three biological replicates with 1-8 repetitions each.

[3] = tested on: cataract-causing mutant crystallin proteins; experiment: Intracellular aggregation of mutant crystallins in HLEB-3 cells; format: cell-based, human; conditions: then 12 h
Protocol: FIG. 9A, FIG. 9B, and FIG. 9C show inhibition of crystallin mutant aggregation by wild-type LSS and lanosterol in HLEB-3 cells (FIG. 9A) or HeLa cells (FIG. 9B). Cells co-transfected with LSS and crystallin mutant constructs were cultured for 24 h before assaying for aggregates. The rescue experiments were performed by addition of 40 […] μM sterols (lanosterol or cholesterol) to the cell culture medium for 2 h, the sterol medium was then replaced with fresh culture medium and the cells were cultured for a further 12 h. The percentage of cells with crystallin aggregates were calculated from ten randomly selected viewing fields. The values of the wild-type LSS group, mutant group, or mutant plus lanosterol group were calculated. […] After transfection for 4 h and incubation in fresh culture medium for another 24 h, the cells were lysed and centrifuged to separate supernatant and insoluble fractions. LSS and crystallin fusion proteins were detected by antibodies against Flag and GFP, respectively. Red arrows indicate higher crystalline content in the soluble fraction versus in the insoluble fraction in cells containing the WT-LSS.
Cells were transfected with various crystallin constructs for 4 h and cultured for an additional 24 h in fresh culture medium. Then the cells were treated with 10, 20 and 40 μM lanosterol in 1% (HLEB-3 cells) or 2% DMSO (HeLa cells) for 2 h and cultured for another 12 h. Cells treated with 1% (HLEB-3 cells) or 2% DMSO (HeLa cells) were used as the controls. Formation of intracellular aggregates of various crystallin proteins was visualized by fluorescence of GFP (green) and the nuclei were stained with Hoechst 33342 (blue). Typical intracellular aggregates are indicated by arrows.
The impact of LSS and lanosterol on intracellular crystallin aggregation were evaluated in single-blinded observer studies. Experiments have been repeated at least three times. P values were calculated using Student's t-tests. Fluorescence microscopy. […]

`CC(C)=CCC[C@@H](C)[C@H]1CC[C@@]2(C)C3=C(CC[C@]12C)[C@@]1(C)CC[C@H](O)C(C)(C)[C@@H]1CC3` [lanosterol, 3β-Hydroxy-8,24-lanostadiene; 8,24-Lanostadien-3β-ol] was tested, and the “intracellular aggregation / aggresome formation of crystallin proteins” value ([1]; 0-40 mM sterols in 1% DMSO for 2 h, then 12 h, concentration-dependent, n=3, lanosterol P<1×10^−4, cholesterol P>0.1) was “significantly inhibited aggresome formation; also recorded: significantly reduced the intracellular aggregation”, the “crystallin aggregation in cells co-expressing an LSS mutant and a mutant crystallin (rescue by sterol)” value ([1]; 40 mM sterols in culture medium for 2 h, then fresh medium 24 h) was “successfully reduced crystallin aggregation” and the “effect on αA-crystallin (Y118D) aggregates in live cells” value [2] was “could effectively diminish crystallin aggregates”. For the same compound, the “percentage of cells with crystallin aggregates versus control group (rescue)” value ([3]; HLEB-3 cells co-transfected with LSS and crystallin mutant, 40 μM sterols 2 h, lanosterol P<1×10^−4, cholesterol P>0.1) was “significantly lower” and the “intracellular aggregation caused by cataract-causing mutant crystallin proteins” value ([3]; HLEB-3 cells, 10, 20 and 40 μM lanosterol in 1% DMSO for 2 h, concentration-dependent) was “significantly reduced the intracellular aggregation”.
